Assay [1] has as its system T47D (PI3Kα-H1047R) cell line. Description: HTRF phospho-AKT(S473) cell assay in T47D cells. The assay is classed as cell-based, human. Put shortly:
(§1)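 T47D (PI3Kα-H1047R; RPMI, 10% FBS, insulin) and SKBR3 (wild-type PI3Kα; McCoy's 5A, 10% FBS) cells treated 2 h at 37 °C with 12-point 1:3 dilutions, top 5 μM and 10 μM respectively, ≤0.5% DMSO. SKBR3 stimulated with 70 ng/ml PDGF-BB for the last 15 min; lysate pAKT(S473) by HTRF, IC50 from curves.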

Assay [2] deals with SKBR3 (PI3Kα-Wild Type) cell line. The experiment in a line: HTRF phospho-AKT(S473) cell assay in SKBR3 cells. The assay is classed as cell-based, human. Put shortly: as §1
Setting [3] is: Homo sapiens; T47D (PI3Kα-H1047R) cells, HTRF phospho-AKT(S473), 2 hours compound incubation.
Where [4] appears, read: Homo sapiens, SK-BR-3; SKBR3 (PI3Kα-Wild Type) cells, HTRF phospho-AKT(S473), 2 hours compound incubation, PDGF-BB stimulated.
[5] abbreviates: Homo sapiens; HTRF phospho-AKT(S473), T47D (PI3Kα-H1047R) cells, 2 hours compound incubation.
The mark [6] stands for this setting: Homo sapiens, SK-BR-3; HTRF phospho-AKT(S473), SKBR3 (PI3Kα-Wild Type) cells, 2 hours compound incubation, PDGF-BB stimulated.

Each structure is given as a SMILES string.

Here are results for 8 molecules from US12281122B1, “PI3K inhibitors” (Cogent Biosciences, Inc., priority 2023, dated 2025).

Take `Cc1cc([C@@H](C)Nc2ccc(Cl)nc2C(=O)NS(C)(=O)=O)c2nc(N3C[C@H]4C[C@@H](c5cc[nH]n5)[C@@H]3C4)n(C)c(=O)c2c1` (single isomer, unassigned) [Compound 346, 3-(((R)-1-(2-((1S,4S,6R*)-6-(1H-pyrazol-3-yl)-2-azabicyclo[2.2.1]heptan-2-yl)-3,6-dimethyl-4-oxo-3,4-dihydroquinazolin-8-yl)ethyl)amino)-6-chloro-N-(methylsulfonyl) picolinamide]: the figures for the IC50 in assay [1] (setting [3]) and in assay [2] (setting [4]) were 250 to 500 nM and no less than 5 µM, respectively.
Consider `Cc1cc([C@@H](C)Nc2ccc(Cl)nc2C(=O)NS(C)(=O)=O)c2nc(N3CCC(c4cc(F)cnc4C)CC3)n(C)c(=O)c2c1` [Compound 436, (R)-6-chloro-3-((1-(2-(4-(5-fluoro-2-methylpyridin-3-yl)piperidin-1-yl)-3,6-dimethyl-4-oxo-3,4-dihydroquinazolin-8-yl)ethyl)amino)-N-(methylsulfonyl) picolinamide], for which the figures for the IC50 in assay [1] (setting [3]) and in assay [2] (setting [4]) were less than 250 nM and 1 to 5 µM, respectively.
Take `Cc1cc([C@@H](C)Nc2ccc(Cl)nc2C(=O)NS(C)(=O)=O)c2nc(-c3ccc4c(c3)ncn4C)n(C)c(=O)c2c1` [Compound 833, (R)-6-chloro-3-((1-(3,6-dimethyl-2-(1-methyl-1H-benzo[d]imidazol-5-yl)-4-oxo-3,4-dihydroquinazolin-8-yl)ethyl)amino)-N-(methylsulfonyl) picolinamide]: the IC50 is 250 to 500 nM in assay [1] (setting [5]) and 1 to 5 µM in assay [2] (setting [6]).
`Cc1cc([C@@H](C)Nc2ccc(Cl)nc2C(=O)NS(C)(=O)=O)c2nc(N3CCC[C@H](c4cnc(C)c(C#N)c4)C3)n(C)c(=O)c2c1` (relative stereo) [Compound 615, 6-chloro-3-(((R)-1-(2-((R*)-3-(5-cyano-6-methylpyridin-3-yl)piperidin-1-yl)-3,6-dimethyl-4-oxo-3,4-dihydroquinazolin-8-yl)ethyl)amino)-N-(methylsulfonyl) picolinamide]: the IC50 in assay [1] (setting [5]) lay within 250 to 500 nM; in assay [2] (setting [6]), 1 to 5 µM.
Take `Cc1cc([C@@H](C)Nc2ccc(Cl)nc2C(=O)NS(C)(=O)=O)c2nc(N3CC[C@@H](Oc4ccnnc4)C3)n(C)c(=O)c2c1` [Compound 710, 6-chloro-3-(((R)-1-(3,6-dimethyl-4-oxo-2-((R)-3-(pyridazin-4-yloxy)pyrrolidin-1-yl)-3,4-dihydroquinazolin-8-yl)ethyl)amino)-N-(methylsulfonyl) picolinamide]: the IC50 is 1000 to 5000 nM in assay [1] (setting [5]) and no less than 5 µM in assay [2] (setting [6]).
The like results for `Cc1cc([C@@H](C)Nc2ccc(Cl)nc2C(=O)NS(C)(=O)=O)c2nc(N3C[C@@H]4C[C@H]3CN4c3ccc(C#N)cn3)n(C)c(=O)c2c1` [Compound 580, 6-chloro-3-(((R)-1-(2-((1S,4S)-5-(5-cyanopyridin-2-yl)-2,5diazabicyclo [2.2.1]heptan-2-yl)-3,6-dimethyl-4-oxo-3,4-dihydroquinazolin-8-yl)ethyl)amino)-N-(methylsulfonyl) picolinamide] were, in that order, 250 to 500 nM and no less than 5 µM.
Turning to `Cc1cc([C@@H](C)Nc2ccc(Cl)nc2C(=O)NS(C)(=O)=O)c2nc(N3C[C@@H]4[C@H](C3)[C@H]4c3ccc(C#N)nc3)n(C)c(=O)c2c1` [Compound 402, 6-chloro-3-(((R)-1-(2-((1R,5S,6S)-6-(6-cyanopyridin-3-yl)-3-azabicyclo[3.1.0]hexan-3-yl)-3,6-dimethyl-4-oxo-3,4-dihydroquinazolin-8-yl)ethyl)amino)-N-(methylsulfonyl) picolinamide], the IC50 in assay [1] (setting [3]) was less than 250 nM; in assay [2] (setting [4]), 1 to 5 µM.
In the case of `Cc1cc([C@@H](C)Nc2ccc(Cl)nc2C(=O)NS(C)(=O)=O)c2nc(N3CCC[C@@H](c4ncc(Cl)cn4)C3)n(C)c(=O)c2c1` (relative stereo) [Compound 588, 6-chloro-3-(((R)-1-(2-((R*)-3-(5-chloropyrimidin-2-yl)piperidin-1-yl)-3,6-dimethyl-4-oxo-3,4-dihydroquinazolin-8-yl)ethyl)amino)-N-(methylsulfonyl) picolinamide], the IC50 is 1000 to 5000 nM in assay [1] (setting [5]) and no less than 5 µM in assay [2] (setting [6]).
